Assay results reported in ChEMBL document CHEMBL1146192, “Substituted chromones and quinolones as potent melanin-concentrating hormone receptor 1 antagonists” (Bioorg Med Chem Lett, 2006).

Columns and labels:
Type in all cases: ADME, organism-based
[1] = Oral bioavailability in Sprague-Dawley rat at 2.5 mg/kg, iv and 10 mg/kg, po; conditions: in vivo
[2] = AUC in Sprague-Dawley rat at 10 mg/kg, po; design: dose 10 mg/kg, route oral; conditions: plasma
[3] = Volume of distribution in Sprague-Dawley rat at 2.5 mg/kg, iv and 10 mg/kg, po; conditions: in vivo, read-out: Vdss
[4] = Ratio of drug level in Sprague-Dawley rat brain against plasma at 2.5 mg/kg, iv and 10 mg/kg, po after 4 hrs; conditions: read-out: BPR
[5] = Ratio of drug level in Sprague-Dawley rat brain against plasma at 2.5 mg/kg, iv and 10 mg/kg, po after 1 hr; conditions: read-out: BPR

bioavailability [1]: 66%
AUC [2]: 0.859 µg·h/mL
Vd [3]: 58 L/kg
Kp at 4 h [4]: 25
Kp at 1 h [5]: 9.5
SMILES: CN(C)[C@@H]1CCN(c2ccc(-c3coc4cc(-c5ccc(Cl)cc5)ccc4c3=O)cn2)C1.Cl
